Data reported in patent US20030204862A1, “Inbred embryonic stem-cell derived mice” (priority 2002, published 2003).
Several values for one entry are separate records, joined by “and”; a condition that tells them apart may be missing. Equal values may be shown once.

Experiments:
C57BL/6 blastocysts = test: Derivation of ES cell lines from C57BL/6 blastocysts in medium with MEK inhibitor; format: cell-based, mouse; details: for Efficiency to derive ES lines / Number of established ES lines: C57BL/6, PD98059 50 then 25 micromolar, 18 blastocysts, UO126 10 then 4 micromolar, 40 blastocysts, 39° C; for higher efficiency of ES cell line derivation in the presence of the MEK inhibitor versus standard conditions: compared with standard conditions (Table 1)
Procedure: ES cell derivation was essentially performed as described by Hogan et al. (Manipulating the mouse embryo, CSHL Press 1994, pp253-89), except that cell culture was performed at 39° C. instead of 37° C. C57BL/6 (Janvier, France), 129SvEv/Tac (Taconic M&B, Denmark) or C57BL/6-APCMin (Jackson Laboratories, USA) male and female mice were mated to obtain blastocysts from fertilized females. The C57BL/6-APCMin mouse strain harbours a spontaneous mutation in the APC tumor suppressor gene (Su L K et al (1992) Science 256:668-670) and provides a genetic model for human hereditary colon cancer. Plug positive females were set aside, and 3 days later blastocysts were isolated by flushing their uteri. The blastocysts were further cultured overnight in CZB medium (Chatot et al. (1990) Biol. Reprod. 42:432-440) and then transferred into 12-well tissue culture plates (1 blastocyst per well), precoated with a monolayer of Mitomycin-C inactivated primary mouse embryonic fibroblasts, in standard ES cell culture medium (“standard conditions”) (Torres and Kuehn, Laboratory protocols for conditional gene targeting, Oxford University Press 1997), or in standard medium supplemented with the MEK inhibitor PD 98059 (NEB Biolabs) (50 micromolar concentration, diluted from a 50 millimolar stock in DMSO stored at −20° C.) or with the MEK inhibitor UO126 (10 micromolar concentration; NEB Biolabs). These cultures were incubated in a tissue culture incubator (Heraeus) for 6 days at 39° C. in a 10% CO2 atmosphere. The outgrown inner cell mass of each blastocyst was isolated with a pipette tip under low power magnification, transferred into a 50 microliter drop of Trypsin solution and incubated at 39° C. for 5-10 minutes. This cell clump was further dissociated by pipetting, the cells were transferred into tissue culture dishes and further propagated at 39° C. using standard ES cell culture conditions (Torres and Kuehn 1997, supra), with and without PD98059 (50 micromolar) or UO126 (10 micromolar). After the initial establishment of ES cell lines propagated in the presence of PD98059 (6 days after the first dissociation) the concentration of PD98059 was reduced to 25 micromolar, the concentration of UO 126 was reduced to 4 micromolar, and the cells were further propagated. The C57BL/6 line Bruce4 (Kontgen et al, (1993) Int Immunol. 5:957-964) was grown under standard conditions at 37° C.
(§1) The sex of the cell lines was determined through Southern blot hybridisation of genomic DNA using a detection probe (pY353) specific to a Y-chromosome specific repeat (Bishop C E and Hatat D. (1987) Nucleic Acids Res 15, 2959-2969).
For the karyotype analysis of ES cell clones, 4×10^6 cells were cultured for 1 hour in the presence of 0.2 μg/ml Demicolchicin (Sigma), trypsinised, resuspended in a hypotonic (0.56%) KCl solution and incubated for 8 minutes at room temperature. The swollen cells were sedimented by centrifugation, resuspended in freshly prepared fixative (3:1 mixture of ethanol/glacial acetic acid) and subsequently washed 2 times in fixative. Finally, the cells were resuspended in 0.5 ml fixative and dropped on glass slides precleaned with ethanol/acetic acid (19/1). After air drying, the metaphase spreads were stained for 5 minutes in a 2% solution of Giemsa's stain (Merck), washed in water, and air-dried. The chromosome numbers of 20 suitable metaphase spreads were counted at 1000× magnification under oil immersion.

129SvEv/Tac blastocysts = test: Derivation of ES cell lines from 129SvEv/Tac blastocysts in medium with MEK inhibitor; format: cell-based, mouse; details: PD98059 50 then 25 micromolar, 12 blastocysts, 39° C
Procedure: ES cell derivation was essentially performed as described by Hogan et al. (Manipulating the mouse embryo, CSHL Press 1994, pp253-89), except that cell culture was performed at 39° C. instead of 37° C. C57BL/6 (Janvier, France), 129SvEv/Tac (Taconic M&B, Denmark) or C57BL/6-APCMin (Jackson Laboratories, USA) male and female mice were mated to obtain blastocysts from fertilized females. The C57BL/6-APCMin mouse strain harbours a spontaneous mutation in the APC tumor suppressor gene (Su L K et al (1992) Science 256:668-670) and provides a genetic model for human hereditary colon cancer. Plug positive females were set aside, and 3 days later blastocysts were isolated by flushing their uteri. The blastocysts were further cultured overnight in CZB medium (Chatot et al. (1990) Biol. Reprod. 42:432-440) and then transferred into 12-well tissue culture plates (1 blastocyst per well), precoated with a monolayer of Mitomycin-C inactivated primary mouse embryonic fibroblasts, in standard ES cell culture medium (“standard conditions”) (Torres and Kuehn, Laboratory protocols for conditional gene targeting, Oxford University Press 1997), or in standard medium supplemented with the MEK inhibitor PD 98059 (NEB Biolabs) (50 micromolar concentration, diluted from a 50 millimolar stock in DMSO stored at −20° C.) or with the MEK inhibitor UO126 (10 micromolar concentration; NEB Biolabs). These cultures were incubated in a tissue culture incubator (Heraeus) for 6 days at 39° C. in a 10% CO2 atmosphere. […]
as §1
(§2) For the karyotype analysis of ES cell clones, 4×10^6 cells were cultured for 1 hour in the presence of 0.2 μg/ml Demicolchicin (Sigma), trypsinised, resuspended in a hypotonic (0.56%) KCl solution and incubated for 8 minutes at room temperature. […] The chromosome numbers of 20 suitable metaphase spreads were counted at 1000× magnification under oil immersion.

C57BL/6 ES cell lines = test: ES mouse production by injection of C57BL/6 inbred ES cells into tetraploid blastocysts; format: in vivo; details: for Number of respirating pups / respirating pups efficiency: E 19.5; for Number of surviving pups / surviving pups efficiency: alive three days later
Procedure: (§3) Production of mice by tetraploid embryo complementation has been previously described (Eggan et al. (2001) PNAS 98:6209-6214). Briefly, embryo culture was carried out in microdrops on standard bacterial petri dishes (Falcon) under mineral oil (Sigma). Modified CZB media (Chatot et al, Supra) was used for embryo culture unless otherwise noted. Hepes buffered CZB was used for room temperature operations. After administration of hormones, superovulated B6D2F1 females were mated with B6D2F1 males. Fertilized zygotes were isolated from the oviduct and any remaining cumulus cells were removed with hyluronidase. After overnight culture, two-cell embryos were electrofused to produce one cell tetraploid embryos using a CF150-B cell fusion instrument from BLS (Budapest, Hungary) according to the manufacturers instructions. Embryos that had not undergone membrane fusion within 1 hour were discarded. Embryos were then cultured in vitro to the blastocyst stage. For microinjection, 5-6 blastocysts were placed in a drop of DMEM with 15% FCS under mineral oil. A flat tip, piezo actuated microinjection-pipette with an internal diameter of 12-15 μm was used to inject 15 ES cells into each blastocyst. After recovery, ten injected blastocysts were transferred to each uterine horn of 2.5 days post coitum, pseudopregnant NMRI females that had been mated with vasectomized males. For cesarian derivation, recipient mothers were sacrificed at E 19.5 and pups were quickly removed. Newborns that were alive and respirating were cross-fostered to lactating females. Three days later, the litters were controlled, and pups alive by that time were counted as surviving pups.

[1] = tested on: 129 ES cell lines (129S6/SvEvTac); test: ES mouse production by injection of 129 inbred ES cells into tetraploid blastocysts; format: in vivo; details: ES line ESAR-S6-PD.4 (129S6/SvEvTac) grown with PD98059, 335 injected tetraploid blastocysts
Procedure: as §3

[2] = tested on: C57BL/6 ES cell lines (Apcmin mutant or Rosa(lacZ) knock-in); test: Production of genetically engineered and mutant inbred ES mice by tetraploid blastocyst injection; format: in vivo, mouse; design: respirating pups efficiency: concentration or dose not given beside the values
Procedure: as §3
In order to generate inbred ES mice which harbour genetic alterations we pursued two different strategies. In the first protocol ES cell lines that were established and grown in media with UO 126 (see Example I) and which harbour the C57BL/6-APCMin mutation were injected into tetraploid blastocysts. […] In the second protocol the C57BL/6 ES cell line ESAR-B6-PD.4 was genetically modified in a predetermined manner through homologous recombination using a gene targeting vector. This vector (Rosa(lacZ) knock-in) introduces a beta-galactosidase reporter gene in conjunction with a selectable hygromycin resistance gene into the endogenous Rosa26 locus of the ES cell genome (Seibler et al., Nucleic Acids Res. 31, e12, 2003). This gene targeting vector was electroporated into ESAR-B6-PD4 cells exactly as described (Seibler et al., Nucleic Acids Res. 31, e12, 2003) and hygromycin resistant ES cell colonies were selected, isolated and further expanded. The genomic DNA of resistant colonies was isolated and tested by Southern blot analysis for the occurrence of a homologous recombination event in one of the Rosa26 alleles. Cells from one of the recombined ES cell clones (ESAR-B6-PD.4-R9 A-F2) was injected into tetraploid blastocysts.

[3] = tested on: undifferentiated ES cells; details: added to the culture medium; Burdon et al. (1999), WO 0015764; cited from earlier work
[4] = tested on: C57BL/6-APCMin blastocysts; details: UO126 10 then 4 micromolar, 33 blastocysts, 39° C
Procedure: ES cell derivation was essentially performed as described by Hogan et al. (Manipulating the mouse embryo, CSHL Press 1994, pp253-89), except that cell culture was performed at 39° C. instead of 37° C. C57BL/6 (Janvier, France), 129SvEv/Tac (Taconic M&B, Denmark) or C57BL/6-APCMin (Jackson Laboratories, USA) male and female mice were mated to obtain blastocysts from fertilized females. The C57BL/6-APCMin mouse strain harbours a spontaneous mutation in the APC tumor suppressor gene (Su L K et al (1992) Science 256:668-670) and provides a genetic model for human hereditary colon cancer. Plug positive females were set aside, and 3 days later blastocysts were isolated by flushing their uteri. […]
as §1, §2

[5] = ES line ESAR-B6-PD.13 (C57BL/6J) grown with PD98059, 180 injected tetraploid blastocysts
[6] = ES line ESAR-B6-PD.3 (C57BL/6J) grown with PD98059, 372 injected tetraploid blastocysts
[7] = ES line ESAR-B6-PD.4 (C57BL/6J) grown with PD98059, 329 injected tetraploid blastocysts
[8] = Sum of three C57BL/6 ES lines grown with PD98059, 881 injected tetraploid blastocysts
[9] = Rosa(lacZ) knock-in ES clone ESAR-B6-PD.4 R9 B-G12 (C57BL/6 J) with PD98059, 162 injected tetraploid blastocysts
[10] = ES line ESAR-APC 3 UO (C57BL/6 J Apcmin) grown with UO126, 405 injected tetraploid blastocysts
[11] = ES line ESAR-APC 9 UO (C57BL/6 J Apcmin) grown with UO126, 228 injected tetraploid blastocysts
[12] = Sum of two C57BL/6 J Apcmin ES lines grown with UO126, 633 injected tetraploid blastocysts

COc1cccc(-c2cc(=O)c3ccccc3o2)c1N [PD98059, 2′-amino-3′-methoxyflavone]
Efficiency to derive ES lines (C57BL/6 blastocysts): 61% | Number of established ES lines (C57BL/6 blastocysts): 11 | Efficiency to derive ES lines (C57BL/6 blastocysts; listed as PD 98059): 61% | higher efficiency of ES cell line derivation in the presence of the MEK inhibitor versus standard conditions (C57BL/6 blastocysts): 5 fold | Efficiency to derive ES lines (129SvEv/Tac blastocysts): 75% | Number of established ES lines (129SvEv/Tac blastocysts): 9 | Efficiency to derive ES lines (129SvEv/Tac blastocysts; listed as PD 98059): 75% | Number of respirating pups (C57BL/6 ES cell lines; [5]): 4 | respirating pups efficiency (C57BL/6 ES cell lines; [5]): 2.22% | Number of surviving pups (C57BL/6 ES cell lines; [5]): 0 | surviving pups efficiency (C57BL/6 ES cell lines; [5]): 0.00% | Number of respirating pups (C57BL/6 ES cell lines; [6]): 8 | respirating pups efficiency (C57BL/6 ES cell lines; [6]): 2.15% | Number of surviving pups (C57BL/6 ES cell lines; [6]): 1 | surviving pups efficiency (C57BL/6 ES cell lines; [6]): 0.27% | Number of respirating pups (C57BL/6 ES cell lines; [7]): 11 | respirating pups efficiency (C57BL/6 ES cell lines; [7]): 3.34% | Number of surviving pups (C57BL/6 ES cell lines; [7]): 4 | surviving pups efficiency (C57BL/6 ES cell lines; [7]): 1.22% | Number of respirating pups (C57BL/6 ES cell lines; [8]): 23 | respirating pups efficiency (C57BL/6 ES cell lines; [8]): 2.6% and 2.61% | Number of surviving pups (C57BL/6 ES cell lines; [8]): 5 | surviving pups efficiency (C57BL/6 ES cell lines; [8]): 0.57% | Number of respirating pups ([1]; E 19.5): 29 | respirating pups efficiency ([1]; E 19.5): 8.66% | Number of surviving pups ([1]; alive three days later): 15 | surviving pups efficiency ([1]; alive three days later): 4.48% | Number of respirating pups [2, 9]: 4 | respirating pups efficiency [2, 9]: 2.47% | effect on growth of undifferentiated ES cells [3]: enhances the growth of undifferentiated ES cells

N#CC(=C(/N)Sc1ccccc1N)/C(C#N)=C(/N)Sc1ccccc1N [UO126, bis[amino[(2-aminophenyl)thio]methylene]butanedinitrile]
Efficiency to derive ES lines (C57BL/6 blastocysts): 80% | Number of established ES lines (C57BL/6 blastocysts): 32 | Efficiency to derive ES lines (C57BL/6 blastocysts; listed as UO 126): 80% | higher efficiency of ES cell line derivation in the presence of the MEK inhibitor versus standard conditions (C57BL/6 blastocysts): 5 fold | Efficiency to derive ES lines [4]: 36% | Number of established ES lines [4]: 12 | Number of respirating pups [2, 10]: 11 | respirating pups efficiency [2, 10]: 2.72% | Number of respirating pups [2, 11]: 1 | respirating pups efficiency [2, 11]: 0.44% | Number of respirating pups [2, 12]: 12 | respirating pups efficiency [2, 12]: 1.90% | respirating pups efficiency ([2]; Sum of two C57BL/6 J Apcmin ES lines grown with UO126, 633 injected tetraploid blastocysts, listed as UO 126): 1.9%
